The values that follow come from ChEMBL document CHEMBL1150980, “Potent inhibitors of neutral endopeptidase. 2-Biphenyl- methylglutaric acid amide derivatives” (Bioorg Med Chem Lett, 1996).

The first test has as its target T1, Neprilysin (Rattus norvegicus, UniProt P07861).
T1 sequence (P07861 whole entry): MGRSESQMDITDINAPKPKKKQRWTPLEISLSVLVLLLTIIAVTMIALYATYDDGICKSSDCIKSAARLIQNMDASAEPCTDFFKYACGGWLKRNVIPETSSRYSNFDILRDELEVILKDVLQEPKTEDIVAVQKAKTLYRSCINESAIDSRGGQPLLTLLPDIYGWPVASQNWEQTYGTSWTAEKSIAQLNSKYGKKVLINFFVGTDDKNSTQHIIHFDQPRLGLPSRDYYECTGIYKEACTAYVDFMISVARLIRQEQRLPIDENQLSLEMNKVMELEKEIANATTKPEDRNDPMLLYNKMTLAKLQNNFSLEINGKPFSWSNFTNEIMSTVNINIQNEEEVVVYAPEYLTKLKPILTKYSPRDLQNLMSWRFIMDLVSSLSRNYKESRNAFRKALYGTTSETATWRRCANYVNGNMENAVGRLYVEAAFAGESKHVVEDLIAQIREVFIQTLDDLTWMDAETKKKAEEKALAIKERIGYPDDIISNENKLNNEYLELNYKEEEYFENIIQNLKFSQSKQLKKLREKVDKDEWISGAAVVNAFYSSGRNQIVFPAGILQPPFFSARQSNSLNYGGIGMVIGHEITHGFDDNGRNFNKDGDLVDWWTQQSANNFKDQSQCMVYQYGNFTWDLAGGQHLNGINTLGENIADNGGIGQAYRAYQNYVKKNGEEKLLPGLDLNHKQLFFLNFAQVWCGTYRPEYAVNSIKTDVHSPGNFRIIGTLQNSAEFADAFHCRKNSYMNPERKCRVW
The test is described as follows: In vitro inhibitory activity against neutral endopeptidase (NEP) from rat kidney.
For orientation: IC50 means the point on the concentration scale where inhibition reaches its midpoint. Higher therefore signals a need for much substance. As to `O=C(O)CNC(=O)[C@H](Cc1ccc(-c2ccccc2)cc1)CC(COc1ccccc1)C(=O)O` (stereo not given in full), 5.9 nM corresponded to half-maximal inhibition (IC50).

Another test concerns the target T1, Neprilysin. The test is described as follows: In vitro inhibition of neutral endopeptidase from rat kidney.
For the compound `CCCC[C@H](C[C@H](Cc1ccc(-n2cccn2)cc1)C(=O)NCC(=O)O)C(=O)O`, the midpoint of inhibition, the IC50, lay at 366 nM.

The compound `O=C(O)CC[C@@H](Cc1ccc(-c2ccccc2)cc1)C(=O)NCC(=O)O` displayed an IC50 of 2.3 nM.

`CCC/C=C(/C[C@@H](Cc1ccc(-n2cccn2)cc1)C(=O)NCC(=O)O)C(=O)O` gave an IC50 above 1000 nM.

For `O=C(O)CNC(=O)[C@H](Cc1ccc(-c2ccccc2)cc1)C[C@@H](COc1ccccc1)C(=O)O`, the IC50 is 3.2 nM.

`O=C(O)CNC(=O)[C@@H](C[C@H](COc1ccccc1)C(=O)O)Oc1ccc(-c2ccccc2)cc1` had an IC50 above 1000 nM.

Compound `O=C(O)CNC(=O)[C@H](Cc1ccc(-c2ccccc2)cc1)C[C@H](COc1ccccc1)C(=O)O` gave an IC50 of 5.9 nM.

`CC(CC(Cc1ncc(-c2ccccc2)cn1)C(=O)NCC(=O)O)C(=O)O` (stereo not given) displayed an IC50 above 1000 nM.

The compound `CC(NC(=O)[C@H](Cc1ccc(-c2ccccc2)cc1)CC(COc1ccccc1)C(=O)O)C(=O)O` (mixture of isomers) registered a half-inhibitory concentration (IC50) of 20 nM.

Turning to `CSCCC(NC(=O)[C@H](Cc1ccc(-c2ccccc2)cc1)CC(COc1ccccc1)C(=O)O)C(=O)O` (mixture of isomers), half-maximal inhibition (IC50) was put at 101 nM.

On to `O=C(O)CNC(=O)[C@H](Cc1ccc(-c2ccccc2)cc1)CC(COc1ccccc1)C(=O)O` (single isomer, unassigned; isomer A), for which the 50% inhibitory concentration (IC50) was found to be 3.2 nM.

In the case of `COCCOCC(CC(Cc1ccccc1)C(=O)NCC(=O)O)C(=O)O` (single isomer, unassigned; isomer A), the IC50 is above 1000 nM.

As to `O=C(O)CNC(=O)C(Cc1ccccc1)CC(COc1ccccc1)C(=O)O` (single isomer, unassigned; isomer A), the IC50 was above 1000 nM.

`COCCOCC(CC(Cc1ccccc1)C(=O)NCC(=O)O)C(=O)O` (single isomer, unassigned; isomer B) displayed a concentration for half-maximal inhibition (IC50) of 945 nM.

In the case of `O=C(O)CNC(=O)C(Cc1ccccc1)CC(COc1ccccc1)C(=O)O` (single isomer, unassigned; isomer B), the half-maximal inhibitory concentration (IC50) stood at 407 nM.

In the case of `O=C(O)C(COc1ccccc1)C[C@@H](Cc1ccc(-c2ccccc2)cc1)C(=O)N1CCCC1C(=O)O` (single isomer, unassigned; isomer B), the IC50 is above 1000 nM.

Compound `CC(NC(=O)[C@H](Cc1ccc(-c2ccccc2)cc1)CC(COc1ccccc1)C(=O)O)C(=O)O` (stereo in doubt) showed an IC50 of 2.8 nM.

`O=C(O)C(COc1ccccc1)C[C@@H](Cc1ccc(-c2ccccc2)cc1)C(=O)N1CCCC1C(=O)O` (stereo in doubt) gave an IC50 above 1000 nM.

The compound `C[C@@H](NC(=O)[C@H](Cc1ccc(-c2ccccc2)cc1)CC(COc1ccccc1)C(=O)O)C(=O)O` (stereo in doubt; form 1) had an IC50 of 13 nM.

`C[C@@H](NC(=O)[C@H](Cc1ccc(-c2ccccc2)cc1)CC(COc1ccccc1)C(=O)O)C(=O)O` (stereo in doubt; form 2) returned an IC50 of 8.7 nM.
